Test results: EP0021678B1, “1-Sulpho-2-oxoazetidine derivatives, their production and pharmaceutical compositions thereof” (Takeda Chemical Industries, Ltd., priority 1979, dated 1981)
Like-named read-outs stand apart in the source and are kept apart here.

What was measured:
Assay in all cases: Anti-bacterial test, minimum inhibitory concentration on agar
Format in all cases: cell-based
[1] = system: Escherichia coli T-7; conditions: T7, medium TSA
Source text: (§1) The compound (I) thus obtained is useful as a drug, being active against certain gram-positive and gram-negative bacteria. By way of example, the compounds are active against the following micro-organisms.
(§2) The media and compounds employed in the anti-bacterial test are as follows: • Media: • TSA = Trypticase soy agar • [Baltimore Biologicals (U.S.A.)] • B-TSA = Blood trypticase soy agar • Compounds: • Compound A = Sodium 3-[2-(2-amino-4-thiazolyl)-2-methoxyiminoacetamido]-2-oxo-azetidine-1-sulphonate • Compound B = Sodium 3-[D(-)-N-(4-ethyl-2,3-dioxo-1-piperazinocarbonyl)-phenyl-glycin- amido]-2-oxoazetidine-1-sulphonate • Compound C = Sodium 3-[D(-)-N-(4-ethyl-2,3-dioxo-1-piperazinocarbonyl)phenylglycinamido]-3-methoxy-2-oxoazetidine-1-sulphonate • Compound D = Sodium 3-[2-(4-ethyl-2,3-dioxo-1-piperazinocarboxamido)-2-(2-amino-4-thiazolyl)-acetamido]-2-oxoazetidine-1-sulphonate • Compound E = Sodium 3-[DL-2-(4-ethyl-2,3-dioxo-1-piperazinocarboxamido)-2-thienylacetamido]-2-oxoazetidine-1-sulphonate • Compound F = Sodium 3-[D-2-(4-ethyl-2,3-dioxo-1-piperazinocarboxamido)-2-thienylacetamido]-2-oxoazetidine-1-sulphonate • Compound G = Sodium 3-[D-2-(4-n-octyl-2,3-dioxo-1-piperazinocarboxamido)-2-phenylacetamido]-2-oxoazetidine-1-sulphonate • Compound H = Sodium 3-[2-(4-n-octyl-2,3-dioxo-1-piperazinocarboxamido)-2-(2-amino-4-thiazolyl)-acetamido]-2-oxoazetidine-1-sulphonate • Compound I = Sodium 3-[D-2-[(2-oxo-3-furfurylideneaminoimidazolidin-1-yl)-carboxamido]-2-phenylacetamido]-2-oxoazetidine-1-sulphonate • Compound J = Sodium 3-[2-(4-n-octyl-2,3-dioxo-1-piperazinocarboxamido)-2-thienylacetamido]-2-oxoazetidine-1-sulphonate • Compound K = Sodium 3-[D-2-[[2-oxo-3-(thiophen-2-aidoimino)-imidazolidin-1-yl]-carboxamido]-2-phenylacetamido]-2-oxoazetidine-1-sulphonate • Compound L = Sodium 3-[2-[(2-oxo-3-furfurylideneaminoimidazolidin-1-yl)-carboxamido]-2-thienylacetamido]-2-oxoazetidine-1-sulphonate

[2] = system: Acinetobacter calcoaceticus IFO 13006
Source text: as §1, §2

[3] = system: Proteus morganii IFO 3168; conditions: Morganella morganii
Source text: as §1, §2

[4] = system: Staphylococcus aureus 1840
Source text: as §1, §2

[5] = system: Streptococcus mitis America; conditions: read-out: Minimum inhibitory concentration
Source text: as §1, §2

[6] = system: Streptococcus pneumoniae Type I; conditions: read-out: Minimum inhibitory concentration
Source text: as §1, §2

[7] = system: Proteus vulgaris IFO 3988
Source text: as §1, §2

[8] = system: Escherichia coli O—111; conditions: medium TSA
Source text: as §1, §2

[9] = system: Klebsiella pneumoniae DT; conditions: read-out: Minimum inhibitory concentration
Source text: as §1, §2

[10] = system: Serratia marcescens IFO 12648
Source text: as §1, §2

[11] = system: Streptococcus faecium IFO 3128; conditions: Enterococcus faecium
Source text: as §1, §2

[12] = system: Proteus mirabilis IFO 3849
Source text: as §1, §2

[13] = system: Escherichia coli NIHJ JC—2; conditions: read-out: Minimum inhibitory concentration
Source text: as §1, §2

[14] = system: Pseudomonas aeruginosa U 31
Source text: as §1, §2

[15] = system: Enterobacter cloacae IFO 12937
Source text: as §1, §2

[16] = system: Corynebacterium diphtheriae Toronto; conditions: read-out: Minimum inhibitory concentration
Source text: as §1, §2

[17] = system: Bordetella bronchiseptica Sagami; conditions: read-out: Minimum inhibitory concentration
Source text: as §1, §2

[18] = system: Staphylococcus aureus 308A—1; conditions: read-out: Minimum inhibitory concentration
Source text: as §1, §2

[19] = system: Staphylococcus aureus FDA209P; conditions: for MIC: Staphylococcus aureus, FDA209P, read-out: Minimum inhibitory concentration
Source text: as §1, §2

[20] = system: Pseudomonas aeruginosa IFO 3455
Source text: as §1, §2

[21] = system: Candida albicans TA; conditions: read-out: Minimum inhibitory concentration
Source text: as §1, §2

[22] = system: Streptococcus pyogenes S—8; conditions: read-out: Minimum inhibitory concentration
Source text: as §1, §2

[23] = system: Citrobacter freundii IFO 12681
Source text: as §1, §2

[24] = system: Streptococcus pyogenes E—14; conditions: read-out: Minimum inhibitory concentration
Source text: as §1, §2

[25] = IFO13006, Acinetobacter calcoaceticus IFO 13006, medium TSA, read-out: Minimum inhibitory concentration
[26] = IFO3168, Proteus morganii IFO 3168, medium TSA, read-out: Minimum inhibitory concentration
[27] = Staphylococcus aureus 1840, medium TSA, read-out: Minimum inhibitory concentration
[28] = Streptococcus mitis America, medium B—TSA
[29] = Streptococcus pneumoniae Type I, medium B—TSA
[30] = IFO3988, Proteus vulgaris IFO 3988, medium TSA, read-out: Minimum inhibitory concentration
[31] = Klebsiella pneumoniae DT, medium TSA
[32] = IFO12648, Serratia marcescens IFO 12648, medium TSA, read-out: Minimum inhibitory concentration
[33] = IFO3128, Streptococcus faecium IFO 3128, medium B—TSA, read-out: Minimum inhibitory concentration
[34] = IFO3849, Proteus mirabilis IFO 3849, medium TSA, read-out: Minimum inhibitory concentration
[35] = Escherichia coli NIHJ JC—2, medium TSA
[36] = U31, Pseudomonas aeruginosa U 31, medium TSA, read-out: Minimum inhibitory concentration
[37] = IFO12937, Enterobacter cloacae IFO 12937, medium TSA, read-out: Minimum inhibitory concentration
[38] = Corynebacterium diphtheriae Toronto, medium B—TSA
[39] = Bordetella bronchiseptica Sagami, medium B—TSA
[40] = Staphylococcus aureus 308A—1, medium TSA
[41] = Staphylococcus aureus FDA209P, medium B—TSA
[42] = Staphylococcus aureus FDA209P, medium TSA
[43] = IFO3455, Pseudomonas aeruginosa IFO 3455, medium TSA, read-out: Minimum inhibitory concentration
[44] = Candida albicans TA, medium TSA
[45] = Streptococcus pyogenes S—8, medium B—TSA
[46] = IFO12681, Citrobacter freundii IFO 12681, medium TSA, read-out: Minimum inhibitory concentration
[47] = Streptococcus pyogenes E—14, medium B—TSA

CCN1CCN(C(=O)N[C@@H](C(=O)NC2CN(S(=O)(=O)O)C2=O)c2ccccc2)C(=O)C1=O (single isomer, unassigned) [Compound B, Sodium 3-[D(-)-N-(4-ethyl-2,3-dioxo-1-piperazinocarbonyl)-phenyl-glycin-amido]-2-oxoazetidine-1-sulphonate]
MIC [1]: > 100 mg/L
MIC [2, 25]: 25 mg/L
MIC [3, 26]: 25 mg/L
MIC [4, 27]: 25 mg/L
MIC [5, 28]: 25 mg/L
MIC [6, 29]: 6.25 mg/L
MIC [7, 30]: 0.1 mg/L
MIC [8]: 0.2 mg/L
MIC [9, 31]: 0.2 mg/L
MIC [10, 32]: 3.13 mg/L
MIC [11, 33]: > 100 mg/L
MIC [12, 34]: 0.78 mg/L
MIC [13, 35]: 1.56 mg/L
MIC [14, 36]: > 100 mg/L
MIC [15, 37]: 50 mg/L
MIC [16, 38]: 3.13 mg/L
MIC [17, 39]: > 100 mg/L
MIC [18, 40]: 3.13 mg/L
MIC [19, 41]: 6.25 mg/L
MIC [19, 42]: 6.25 mg/L
MIC [20, 43]: 1.56 mg/L
MIC [21, 44]: > 100 mg/L
MIC [22, 45]: 6.25 mg/L
MIC [23, 46]: 6.25 mg/L
MIC [24, 47]: 3.13 mg/L

CON=C(C(=O)NC1CN(S(=O)(=O)[O-])C1=O)c1csc(N)n1.[Na+] (stereo not drawn) [Compound A, Sodium 3-[2-(2-amino-4-thiazolyl)-2-methoxyiminoacetamido]-2-oxo-azetidine-1-sulphonate]
MIC [1]: > 100 mg/L
MIC ([2]; Acinetobacter calcoaceticus, IFO13006, read-out: Minimum inhibitory concentration): 6.25 mg/L
MIC ([3]; IFO3168, read-out: Minimum inhibitory concentration): 25 mg/L
MIC ([4]; Staphylococcus aureus, 1840, read-out: Minimum inhibitory concentration): 100 mg/L
MIC ([5]; Streptococcus mitis): 25 mg/L
MIC ([6]; Streptococcus pneumoniae): 12.5 mg/L
MIC ([7]; Proteus vulgaris, IFO3988, read-out: Minimum inhibitory concentration): 1.56 mg/L
MIC [8]: 0.39 mg/L
MIC ([9]; Klebsiella pneumoniae): 0.78 mg/L
MIC ([10]; Serratia marcescens, IFO12648, read-out: Minimum inhibitory concentration): 12.5 mg/L
MIC ([11]; IFO3128, read-out: Minimum inhibitory concentration): > 100 mg/L
MIC ([12]; Proteus mirabilis, IFO3849, read-out: Minimum inhibitory concentration): 6.25 mg/L
MIC ([13]; Escherichia coli): 0.78 mg/L
MIC ([14]; Pseudomonas aeruginosa, U31, read-out: Minimum inhibitory concentration): > 100 mg/L
MIC ([15]; Enterobacter cloacae, IFO12937, read-out: Minimum inhibitory concentration): > 100 mg/L
MIC ([16]; Corynebacterium diphtheriae): 1.56 mg/L
MIC ([17]; Bordetella bronchiseptica): 100 mg/L
MIC ([18]; Staphylococcus aureus): 25 mg/L
Minimum inhibitory concentration [19, 41]: 50 mg/L
MIC [19]: 50 mg/L
MIC ([20]; Pseudomonas aeruginosa, IFO3455, read-out: Minimum inhibitory concentration): 6.25 mg/L
MIC ([21]; Candida albicans): > 100 mg/L
MIC ([22]; Streptococcus pyogenes): 3.13 mg/L
MIC ([23]; Citrobacter freundii, IFO12681, read-out: Minimum inhibitory concentration): 1.56 mg/L
MIC ([24]; Streptococcus pyogenes): 3.13 mg/L

CCN1CCN(C(=O)NC(C(=O)NC2CN(S(=O)(=O)O)C2=O)c2csc(N)n2)C(=O)C1=O (stereo not drawn) [Compound D, Sodium 3-[2-(4-ethyl-2,3-dioxo-1-piperazinocarboxamido)-2-(2-amino-4-thiazolyl)-acetamido]-2-oxoazetidine-1-sulphonate]
MIC [1]: > 100 mg/L
MIC [2, 25]: 50 mg/L
MIC [3, 26]: 12.5 mg/L
MIC [4, 27]: 25 mg/L
MIC [5, 28]: 25 mg/L
MIC [6, 29]: 6.25 mg/L
MIC [7, 30]: 0.1 mg/L
MIC [8]: 0.1 mg/L
MIC [9, 31]: 0.2 mg/L
MIC [10, 32]: 0.78 mg/L
MIC [11, 33]: > 100 mg/L
MIC [12, 34]: 25 mg/L
MIC [13, 35]: 0.39 mg/L
MIC [14, 36]: > 100 mg/L
MIC [15, 37]: 25 mg/L
MIC [16, 38]: 3.13 mg/L
MIC [17, 39]: > 100 mg/L
MIC [18, 40]: 6.25 mg/L
MIC [19, 41]: 12.5 mg/L
MIC [19, 42]: 12.5 mg/L
MIC [20, 43]: 3.13 mg/L
MIC [21, 44]: > 100 mg/L
MIC [22, 45]: 3.13 mg/L
MIC [23, 46]: 1.56 mg/L
MIC [24, 47]: 3.13 mg/L
